This note sets out measurements from US4357344A, “Polybutylbenzylphenols and benzyl-3,4-methylenedioxybenzenes in insect population control” (The United States of America as represented by the …, priority 1979, dated 1982).

Format in all cases: in vivo
Data set [1] has as its system flies (family Muscidae). The data set is described as follows: Chemosterilancy tests (egg hatch and pupal development; Examples 6-9). How it is done:
(§1) The compound to be tested was administered in a standard fly food containing 6 parts of sugar, 6 parts of powdered non-fat dry milk, and 1 part of powdered egg yolk. Treated food was prepared by mixing an appropriate amount of a solution or suspension of CBCP in acetone with a batch of the food. The acetone was evaporated (4-6 hours) and the dry material was repulverized.
(§2) Chemosterilancy tests: If eggs were laid in the above tests, the cups were filled with water and stirred to break up the egg masses. A random sample of 100 eggs from each cup was collected and placed on a small piece of black cloth which was then laid on top of moist larva-rearing medium in a rearing container. Observations were made to determine percentage of egg hatch and pupal development.
The procedure outlined in Example 6 was followed using a Group II compound.
The procedure outlined in Example 6 was followed using Group III compounds. The results are summarized below:
The procedure outlined in Example 6 was followed substituting a Group IV compound for those of Group I. The table below provides a summary of results.

Data set [2] deals with early fourth-stage larvae of the common malaria mosquito (Anopheles quadrimaculatus). In words: Growth-inhibition tests on mosquito larvae. Conditions: in water; corrected by Abbott's formula. The procedure:
The compound to be tested was added to one liter of water until the final concentration thereof was a growth-inhibiting amount. Fifty early fourth-stage larvae of the common malaria mosquito (Anopheles quadrimaculatus) were placed on this water. Larval food was administered daily. Dead larvae and pupae were removed, counted, and discarded daily. Live pupae were removed, rinsed, and transferred to a cup of distilled water. The cup was placed in an emergence cage, and the emerging adults, if any, were maintained on a sugar-water diet.
The effectiveness of the compound in inhibiting growth was determined by adding the number of dead larvae and pupae and the number of adults that were dead, unable to complete eclosion, and malformed. This sum was corrected by Abbott's formula (to adjust for the number of larvae or pupae which would die naturally) and designated as the GI (growth inhibition). The results are expressed as GI-90, i.e., the concentration of growth inhibitor in ppm that would prevent and/or retard growth in 90% of the treated larvae.

The test system of data set [3] is flies (family Muscidae). In words: Oviposition inhibition tests (treated fly food; Examples 6-9). How it is done: The compound to be tested was administered in a standard fly food containing 6 parts of sugar, 6 parts of powdered non-fat dry milk, and 1 part of powdered egg yolk. Treated food was prepared by mixing an appropriate amount of a solution or suspension of CBCP in acetone with a batch of the food. The acetone was evaporated (4-6 hours) and the dry material was repulverized. Oviposition inhibition tests: Samples of treated food with a container of water were placed in cages containing 100 newly-emerged adult flies (family Muscidae). After the flies had been exposed to the treated diet for 6-7 days, 1/2 inch of moist standard fly larva-rearing medium (CSMA) in souffle cups was placed in the cages for oviposition. After 4-6 hours, the cup was removed and examined for eggs. […] The procedure outlined in Example 6 was followed using a Group II compound. The procedure outlined in Example 6 was followed using Group III compounds. The results are summarized below: The procedure outlined in Example 6 was followed substituting a Group IV compound for those of Group I. The table below provides a summary of results.

The test system of data set [4] is flies (family Muscidae). The data set is described as follows: Anti-procreant comparison tests (sexual sterility or oviposition inhibition). Conditions: for inducing sexual sterility or inhibiting oviposition: comparison tests, Examples 6-9; for activity in the method of the invention (ineffective compounds): general statement of the description. How it is done: as §1
Oviposition inhibition tests: Samples of treated food with a container of water were placed in cages containing 100 newly-emerged adult flies (family Muscidae). After the flies had been exposed to the treated diet for 6-7 days, 1/2 inch of moist standard fly larva-rearing medium (CSMA) in souffle cups was placed in the cages for oviposition. After 4-6 hours, the cup was removed and examined for eggs. If no eggs were laid, the medium was offered again at intervals of 1 or 2 days until it had been offered three times or the flies had oviposited.
as §2
These flies were maintained on untreated fly food. After 5 days, cups containing the larval-rearing medium was provided as previously described and a 100-egg sample was collected and place on moist larve-rearing medium. About a week after oviposition, examination was made to determine the percentage of hatched eggs and of pupae developed.
For purpose of comparison the above-described tests were applied to 2-benzyl-4-t-butylphenol and 2-(α-methylbenzyl)-4-t-butylphenol.
For purposes of comparison the above-described tests were applied to 2,6-di-t-butyl-4-(4-methoxybenzyl) phenol and 2,6-di-t-butyl-4-(α-methyl-4-methoxybenzyl)phenol, both compounds being ineffective in inducing sexual sterility or in inhibiting oviposition.
For purposes of comparison the following compounds were tested and found to be ineffective in inducing sexual sterility or in inhibiting oviposition: 2-(4-methoxybenzyl)-3,4-methylenedioxyphenol, (α-methylbenzyl)-3,4-methylenedioxy-6-methoxybenzene, (α,α-dimethylbenzyl)-3,4-methylenedioxy-6-methoxybenzene, (α,α-dimethylbenzyl)-3,4-methylenedioxy-6-ethoxybenzene, (α,α-dimethylbenzyl)-3,4-methylenedioxy-6-n-propoxybenzene, (α,α-dimethylbenzyl)-3,4-methylenedioxy-6-n-butoxybenzene, (α,α-dimethylbenzyl)-3,4-methylenedioxy-6-n-pentoxybenzene, (α-vinylbenzyl)-3,4-methylenedioxy-6-methoxybenzene, (α-vinylbenzyl)-3,4-methylenedioxy-6-ethoxybenzene, (α-vinylbenzyl)-3,4-methylenedioxy-6-n-propoxybenzene.

Take `CCCCCOc1cc2c(cc1C(C)c1ccc(OC)cc1)OCO2` (stereo not drawn) [K, (α-methyl-4-methoxybenzyl)-3,4-methylenedioxy-6-n-pentoxybenzene]: the Egg hatch turned out to be 70% in data set [1] (0.1% in food), 0% in data set [1] (0.25% in food), 0% in data set [1] (0.5% in food) and 0% in data set [1] (1.0% in food). Besides, the Pupal development in data set [1] (0.1% in food) is reported as 70%; in data set [1] (0.25% in food), 0%; in data set [1] (0.5% in food), 0%; in data set [1] (1.0% in food), 0%. For the same compound, the “GI-90 (concentration of growth inhibitor that would prevent and/or retard growth in 90% of the treated larvae)” value in data set [2] was found to be 0.060 ppm. The “Mortality, parent generation” value in data set [3] (0.1% in food), in data set [3] (0.25% in food), in data set [3] (0.5% in food) and in data set [3] (1.0% in food) was 0% in each case.

Consider `COc1ccc(Cc2cc(C(C)(C)C)c(O)c(C(C)(C)C)c2)cc1` [F, 2,6-Di-t-butyl-4-(4-methoxybenzyl)phenol], for which the “GI-90 (concentration of growth inhibitor that would prevent and/or retard growth in 90% of the treated larvae)” value in data set [2] is reported as 0.042 ppm. Besides, in data set [4], the “inducing sexual sterility or inhibiting oviposition” value was “ineffective” and the “activity in the method of the invention (ineffective compounds)” value was “ineffective”.

In the case of `CCCc1cc2c(cc1Cc1ccc(OC)cc1)OCO2` [DD, (4-Methoxybenzyl)-3,4-methylenedioxy-6-n-propylbenzene], the Egg hatch came out at 7% in data set [1] (0.025% in food), 0% in data set [1] (0.05% in food) and 0% in data set [1] (0.1% in food). The results for the Pupal development in data set [1] (0.025% in food), in data set [1] (0.05% in food) and in data set [1] (0.1% in food) were 7%, 0% and 0%, respectively. The “GI-90 (concentration of growth inhibitor that would prevent and/or retard growth in 90% of the treated larvae)” value in data set [2] is recorded as 0.2 ppm. Also, the “Mortality, parent generation” value in data set [3] (0.025% in food), in data set [3] (0.05% in food), in data set [3] (0.1% in food) and in data set [3] (0.25% in food) was 0% throughout.

Take `COc1ccc(C(C)c2cc3c(cc2OC)OCO3)cc1` (stereo not drawn) [H, (α-Methyl-4-methoxybenzyl)-3,4-methylenedioxy-6-methoxybenzene]: the Egg hatch came out at 14% in data set [1] (0.01% in food) and 45% in data set [1] (0.025% in food). Besides, the Pupal development in data set [1] (0.01% in food) is recorded as 14%; in data set [1] (0.025% in food) it was 45%. Moreover, in data set [2], the “GI-90 (concentration of growth inhibitor that would prevent and/or retard growth in 90% of the treated larvae)” value turned out to be 0.5 ppm. Also, the “Mortality, parent generation” value in data set [3] (0.01% in food) and in data set [3] (0.025% in food) was 0% throughout.

For `CCCCOc1cc2c(cc1Cc1ccc(OC)cc1)OCO2` [P, (4-Methoxybenzyl)-3,4-methylenedioxy-6-n-butoxybenzene], the Egg hatch in data set [1] (0.05% in food) was found to be 36%; in data set [1] (0.1% in food), 10%; in data set [1] (0.25% in food), 0%; in data set [1] (0.5% in food) it was 0%. Also, the Pupal development in data set [1] (0.05% in food) is listed as 36%; in data set [1] (0.1% in food) it was 10%; in data set [1] (0.25% in food) it was 0%; in data set [1] (0.5% in food) it was 0%. Moreover, in data set [2], the “GI-90 (concentration of growth inhibitor that would prevent and/or retard growth in 90% of the treated larvae)” value was found to be 0.047 ppm. For the same compound, the “Mortality, parent generation” value in data set [3] (0.05% in food), in data set [3] (0.1% in food), in data set [3] (0.25% in food) and in data set [3] (0.5% in food) was 0% each time.

Consider `COc1c(C)cc(Cc2ccc3c(c2)OCO3)cc1C` [JJ, (3,5-Dimethyl-4-methoxybenzyl)-3,4-methylenedioxybenzene], for which the Egg hatch in data set [1] (0.05% in food) turned out to be 70%; in data set [1] (0.1% in food), 6%; in data set [1] (0.25% in food), 0%. The Pupal development in data set [1] (0.05% in food) worked out at 70%; in data set [1] (0.1% in food), 6%; in data set [1] (0.25% in food), 0%. Further, the “GI-90 (concentration of growth inhibitor that would prevent and/or retard growth in 90% of the treated larvae)” value in data set [2] amounted to 0.6 ppm. The “Mortality, parent generation” value in data set [3] (0.05% in food) came out at 0%; in data set [3] (0.1% in food), 0%; in data set [3] (0.25% in food), 0%; in data set [3] (0.5% in food) it was 70%.

`CC(c1ccccc1)c1cc(C(C)(C)C)ccc1O` (stereo not drawn) [2-(α-methylbenzyl)-4-t-butylphenol, reference compound]: in data set [4], the “inducing sexual sterility or inhibiting oviposition” value is “ineffective” and the “activity in the method of the invention (ineffective compounds)” value is on record as “ineffective”.

Take `COc1ccc(Cc2cc3c(cc2OC(C)C)OCO3)cc1` [O, (4-Methoxybenzyl)-3,4-methylenedioxy-6-iso-propoxybenzene]: the values for the Egg hatch in data set [1] (0.05% in food) and in data set [1] (0.25% in food) were 48% and 0%, respectively. In addition, the values for the Pupal development in data set [1] (0.05% in food) and in data set [1] (0.25% in food) were 48% and 0%, respectively. The “GI-90 (concentration of growth inhibitor that would prevent and/or retard growth in 90% of the treated larvae)” value in data set [2] worked out at 0.8 ppm. For the same compound, the “Mortality, parent generation” value in data set [3] (0.05% in food) is reported as 0%; in data set [3] (0.25% in food), 0%; in data set [3] (0.5% in food) it was 80%.
